Assay results taken from patent US6242425A, “Quinolinone glycoside, production process, and anti-allergic agent” (Dainippon Ink and Chemicals, Inc., priority 1998, dated 2001).

Assays:
[1] = test system: delayed type asthmatic response; assay: Effect on experimental delayed type asthma model in guinea pigs (airway resistance); format: in vivo, guinea pig (male hartley guinea pigs); settings: AUC of airway resistance change 4-8 hours after challenge
From the text: (§1) Effect on experimental immediate and delayed type asthma model in guinea pigs
(§2) The asthma is typical allergic disease and we carried out this pharmacological test by experimental asthmatic model in guinea pigs in order to confirm that the compounds of the present invention, compound 14, 16, 20, 26 and 32, suppress immediate and delayed type asthmatic response. In the following, the method of the pharmacological test will be explained.
(§3) Method: Male hartley guinea pigs were sensitized by exposured aerosolized ovalbumine (OVA) (1% in saline) for 10 minutes per a day at eight times. The aerosol was generated by an ultrasonic nebulizer (NE-U12, Omron inc.). One week after final sensitization, the animals were challenged with inhalation of OVA (2% in saline) for 5 minutes. The animals were pretreated with metyrapone (10 mg/kg, i.v.) at 1 and 4 hours before the challenge, and pyrilamine (10 mg/kg, i.p.) at 30 minutes before the challenge. airway resistance in the conscious animals were measured for 1 minute with PULMOS-1 (made in Medical Interface Project Station Inc.) at 1 minute, 2, 4, 5, 6, 7, 8 and 23 to 24 hours after the challenge. Compound 14, 16, 20, 26 and 32 (test compound) suspended in 0.5% methylcellulose (MC) solution were given i.v. at doses of 0.2 and 0.5 mg/kg 1 hour before and 3 hours after the challenge. As a positive control group, Prednisolone was given orally at a dose of 10 mg/kg 2 hours and 16 hours before the challenge. As vehicle control group, only 0.5% MC solution was given orally.
(§4) The evaluation of the effect of the compounds on immediate and delayed type asthmatic response was undertaken with percentage of change in airway resistance 1 minute after the challenge and the area under the response curve for percentage of change in airway resistance between 4 and 8 hours after the challenge, respectively.
(§5) The inhibition (%) of the compounds for immediate and delayed type asthmatic response was calculated according to equation 2 and the result was shown in table 2. Each experimental group consisted of 8 guinea pigs.
(§6) Inhibition (%)=(A-B)/A×100
(§7) A: percentage of change in airway resistance in vehicle control group
(§8) B: percentage of change in airway resistance in test compound group or positive control group

[2] = test system: immediate type asthmatic response; assay: Effect on experimental immediate type asthma model in guinea pigs (airway resistance); format: in vivo, guinea pig (male hartley guinea pigs); settings: airway resistance 1 minute after challenge
From the text: as §1, §2, §3, §4, §5, §6, §7, §8

[3] = test system: homologous passive cutaneous anaphylaxis (PCA) reaction in rats; assay: Effect on homologous passive cutaneous anaphylaxis (PCA) reaction in rats; format: in vivo, rat (male wistar rats); settings: vs vehicle control
Description: Effect on homologous passive cutaneous anaphylaxis (PCA) reaction in rats
This experimental animal model is caused by immediate type allergic reaction, namely, antigen-antibody reaction. In the following, the method of this pharmacological test will be explained.
Method: Male wistar rats (9 weeks old) were intradermally administered 0.05 ml of anti-serum against dinitrophenylated ascaris (DNP-As) into two sites on the shaved dorsal skin. 48 hours later, glycosyloxyquinolinone derivatives (test compounds) suspended in 0.5% methylcellulose (MC) were given i.v. at a dose of 0.5 mg/kg to the animals. 1 hour after administration of Test compounds, the animals were induced anaphylaxis by injection of saline (1 ml) dissolving 1 mg of trinitrophenylated ascaris (TNP-As) and 5 mg of Evans Blue into the tail vein of the animals. 30 minutes after induction of anaphylaxis, animals were anesthetized by ether and killed by bleeding, and were flayed dorsal skin. The leakage of dye was assessed by measuring the diameter (mean of shortest and longest diameter) of the blue spot on the inside surface of dorsal skin. As vehicle control group, only 0.5% MC solution was administered orally, and as positive control group, Tranilast suspended in 0.5% MC were administered orally at a dose of 100 mg/kg to the animals with the same method as the test compounds groups. Each experimental group consisted of 5 rats.
In the conditions of this experiment, it was considered that the compound, which inhibited PCA reaction by over forty (40) percent against that in vehicle control group, was evidently effective for immediate type allergy.
as §6
A: leakage of dye in vehicle control group
B: leakage of dye in test compound group or positive control group

[4] = 0.2 mg/kg i.v., 1 hour before and 3 hours after challenge
[5] = 0.5 mg/kg i.v., 1 hour before and 3 hours after challenge
[6] = 0.5 mg/kg i.v., 1 hour before challenge
[7] = positive control, 10 mg/kg orally, 2 and 16 hours before challenge

CCCCCCCCOc1c(O[C@H]2O[C@H](CO)[C@@H](O)[C@H](O)[C@@H]2O)c2ccc(NC(=O)/C=C/c3cc(OC)c(O[C@H]4O[C@H](CO)[C@@H](O)[C@H](O)[C@@H]4O)c(OC)c3)cc2n(C)c1=O [Compound 32, 7-[3,5-dimethoxy-4-(α-D-mannopyranosyloxy)cinnamoyl]amino-3-octyloxy-4-(α-D-mannopyranosyloxy)-1-methyl-2(1H)-quinolinone]
delayed type asthma inhibition (%) [1, 4]: 49% | delayed type asthma inhibition (%) [1, 5]: 57% | immediate type asthma inhibition % [2, 4]: 26% | immediate type asthma inhibition % [2, 5]: 34% | inhibition (%) of PCA reaction [3, 6]: 45%

C[C@]12C=CC(=O)C=C1CC[C@@H]1[C@@H]2[C@@H](O)C[C@@]2(C)[C@H]1CC[C@]2(O)C(=O)CO [Prednisolone, reference compound]
delayed type asthma inhibition (%) [1, 7]: 69% | immediate type asthma inhibition % [2, 7]: 27%

CCCCCCCCOc1c(O[C@@H]2O[C@H](CO)[C@H](O)[C@H](O)[C@H]2O)c2ccc(NC(=O)/C=C/c3cc(OC)c(O[C@@H]4O[C@H](CO)[C@H](O)[C@H](O)[C@H]4O)c(OC)c3)cc2n(C)c1=O [Compound 26, 7-[3,5-dimethoxy-4-(β-D-galactopyranosyloxy)cinnamoyl]amino-3-octyloxy-4-(β-D-galactopyranosyloxy)-1-methyl-2(1H)-quinolinone]
delayed type asthma inhibition (%) [1, 4]: 52% | delayed type asthma inhibition (%) [1, 5]: 63% | immediate type asthma inhibition % [2, 4]: 25% | immediate type asthma inhibition % [2, 5]: 37% | inhibition (%) of PCA reaction [3, 6]: 50%

CCCCCCCCOc1c(O[C@@H]2O[C@H](C(=O)O)[C@@H](O)[C@H](O)[C@H]2O)c2ccc(NC(=O)/C=C/c3cc(OC)c(O[C@@H]4O[C@H](C(=O)O)[C@@H](O)[C@H](O)[C@H]4O)c(OC)c3)cc2n(C)c1=O [Compound 14]
delayed type asthma inhibition (%) [1, 4]: 64% | delayed type asthma inhibition (%) [1, 5]: 73% | immediate type asthma inhibition % [2, 4]: 29% | immediate type asthma inhibition % [2, 5]: 37% | inhibition (%) of PCA reaction [3, 6]: 54%

CCCCCCCCOc1c(O[C@H]2O[C@H](CO)[C@@H](O)[C@H](O)[C@@H]2O)c2ccc(NC(=O)/C=C/c3cc(OC)c(O)c(OC)c3)cc2n(C)c1=O [Compound 34, 7-(3,5-dimethoxy-4-hydroxycinnamoyl)amino-3-octyloxy-4-(α-D-mannopyranosyloxy)-1-methyl-2(1H)-quinolinone]
inhibition (%) of PCA reaction [3, 6]: 42%

CCCCCCCCOc1c(O[C@@H]2O[C@H](C(=O)O)[C@@H](O)[C@H](O)[C@H]2O)c2ccc(NC(=O)/C=C/c3cc(OC)c(O)c(OC)c3)cc2n(C)c1=O [Compound 16, 7-(3,5-dimethoxy-4-hydroxycinnamoyl)amino-3-octyloxy-4-(β-D-glcuropyranosyloxy)-1-methyl-2(1H)-quinolinone]
delayed type asthma inhibition (%) [1, 4]: 42% | delayed type asthma inhibition (%) [1, 5]: 51% | immediate type asthma inhibition % [2, 4]: 22% | immediate type asthma inhibition % [2, 5]: 26% | inhibition (%) of PCA reaction [3, 6]: 41%

CCCCCCCCOc1c(O)c2ccc(NC(=O)/C=C/c3cc(OC)c(O[C@@H]4O[C@H](CO)[C@@H](O)[C@H](O)[C@H]4O)c(OC)c3)cc2n(C)c1=O [Compound 21, 7-[3,5-dimethoxy-4-(β-D-glucopyranosyloxy)cinnamoyl]amino-3-octyloxy-4-hydroxy-1-methyl-2(1H)-quinolinone]
inhibition (%) of PCA reaction [3, 6]: 46%

CCCCCCCCOc1c(O[C@@H]2O[C@H](CO)[C@@H](O)[C@H](O)[C@H]2O)c2ccc(NC(=O)/C=C/c3cc(OC)c(O[C@@H]4O[C@H](CO)[C@@H](O)[C@H](O)[C@H]4O)c(OC)c3)cc2n(C)c1=O [Compound 20, 7-[3,5-dimethoxy-4-(β-D-glucopyranosyloxy)cinnamoyl]amino-3-octyloxy-4-(β-D-glucopyranosyloxy)-1-methyl-2(1H)-quinolinone]
delayed type asthma inhibition (%) [1, 4]: 57% | delayed type asthma inhibition (%) [1, 5]: 61% | immediate type asthma inhibition % [2, 4]: 27% | immediate type asthma inhibition % [2, 5]: 38% | inhibition (%) of PCA reaction [3, 6]: 49%

CCCCCCCCOc1c(O)c2ccc(NC(=O)/C=C/c3cc(OC)c(O[C@H]4O[C@H](CO)[C@@H](O)[C@H](O)[C@@H]4O)c(OC)c3)cc2n(C)c1=O [Compound 33, 7-[3,5-dimethoxy-4-(α-D-mannopyranosyloxy)cinnamoyl]amino-3-octyloxy-4-hydroxy-1-methyl-2(1H)-quinolinone]
inhibition (%) of PCA reaction [3, 6]: 40%

CCCCCCCCOc1c(O)c2ccc(NC(=O)/C=C/c3cc(OC)c(O[C@@H]4O[C@H](C(=O)O)[C@@H](O)[C@H](O)[C@H]4O)c(OC)c3)cc2n(C)c1=O [Compound 15, 7-[3,5-dimethoxy-4-(β-D-glucuropyranosyloxy)cinnamoyl]amino-3-octyloxy-4-hydroxy-1-methyl-2(1H)-quinolinone]
inhibition (%) of PCA reaction [3, 6]: 42%

CCCCCCCCOc1c(O[C@@H]2O[C@H](CO)[C@@H](O)[C@H](O)[C@H]2O)c2ccc(NC(=O)/C=C/c3cc(OC)c(O)c(OC)c3)cc2n(C)c1=O [Compound 22, 7-(3,5-dimethoxy-4-hydroxycinnamoyl)amino-3-octyloxy-4-(β-D-glucopyranosyloxy)-1-methyl-2(1H)-quinolinone]
inhibition (%) of PCA reaction [3, 6]: 42%

CCCCCCCCOc1c(O[C@@H]2O[C@H](CO)[C@H](O)[C@H](O)[C@H]2O)c2ccc(NC(=O)/C=C/c3cc(OC)c(O)c(OC)c3)cc2n(C)c1=O [Compound 28, 7-(3,5-dimethoxy-4-hydroxycinnamoyl)amino-3-octyloxy-4-(β-D-galactopyranosyloxy)-1-methyl-2(1H)-quinolinone]
inhibition (%) of PCA reaction [3, 6]: 43%

COc1ccc(/C=C/C(=O)Nc2ccccc2C(=O)O)cc1OC [Tranilast, reference compound]
inhibition (%) of PCA reaction ([3]; positive control, 100 mg/kg orally): 52%

CCCCCCCCOc1c(O)c2ccc(NC(=O)/C=C/c3cc(OC)c(O[C@@H]4O[C@H](CO)[C@H](O)[C@H](O)[C@H]4O)c(OC)c3)cc2n(C)c1=O [Compound 27, 7-[3,5-dimethoxy-4-(β-D-galactopyranosyloxy)cinnamoyl]amino-3-octyloxy-4-hydroxy-1-methyl-2(1H)-quinolinone]
inhibition (%) of PCA reaction [3, 6]: 46%
